According to patent US20240317755A1, “HETEROCYCLIC COMPOUND, AND INTERMEDIATE THEREOF, PREPARATION METHOD THEREFOR AND USE THEREOF” (WUHAN LL SCIENCE AND TECHNOLOGY DEVELOPMENT CO., LTD., priority 2021, published 2024):
Read-outs that look alike come from different tables or passages of the source.

Legend:
TRPC5 channel = TRPC5 channel (Homo sapiens (Human), UniProt Q9UL62); experiment: TRPC5 calcium flux assay (Fluo-4, FLIPR) in TRPC5-HEK 293 cells; format: cell-based; details: for IC50: 0.3 nM Englerin A
Method: TRPC5 is a type of non-selective cation channel with permeability to calcium ions. […] Fluo-4 AM fluorescence dye was used to indirectly reflect the effect of the compound on TRPC5 channel by detecting intracellular Ca^2+ in TRPC5-HEK 293 cells.
• Revival solution: 100% high glucose DMEM • Selection medium: high glucose DMEM+10% FBS+1% P/S+1% HEPES+Blasticidin (5 μg/mL)+Hygromycine (50 μg/mL) • Induction medium: high glucose DMEM+10% FBS+1% P/S+1% HEPES+Doxycycline (1 μg/mL)
(§1) 14 hours before the real-time fluorescence experiment, cells were washed with PBS and digested with trypsin-EDTA. Cells were diluted to 200,000 cells/mL with induction medium and seeded onto a 96-well black wall bottom transparent plate coated with poly-D-lysine (PDL) (stock solution of 10 mg/mL, final concentration of 10 μg/mL) at 100 μL/well, i.e., 20,000 cells/well.
500 mL of external solution for detecting TRPC5 calcium signals: 4.0908 g of NaCl, 0.1864 g of KCl, 0.111 g of CaCl2, 0.0476 g of MgCl2, 0.9 g of glucose, 1.1915 g of HEPES (2-[4-(2-hydroxyethyl)piperazin-1-yl]ethanesulfonic acid).
Calcium fluorescent dye: an external solution for detecting TRPC5 calcium signals containing Fluo-4 with a final concentration of 4 μM (containing 0.5% BSA)
Positive inhibitor concentration: 100 nM
The dose-effect diagram was used to calculate AUC (area under the curve of the curve formed by the calcium flux signal), and the data and the log of the compound concentration were collected. The IC50 value was calculated using log[Inhibitor] vs. response Variable slope.
TRPC5 is a type of non-selective cation channel with permeability to calcium ions. […] Fluo-4 AM fluorescence dye was used to indirectly reflect the effect of the compound on TRPC5 channel by detecting intracellular […] in TRPC5-HEK 293 cells.
1. Cell culture 1.1 Revival of TRPC5-HEK 293 cells • Revival solution: 100% high glucose DMEM • Selection medium: high glucose DMEM+10% FBS+1% P/S+1% HEPES+Blasticidin (5 μg/mL)+Hygromycine (50 μg/mL) • Induction medium: high glucose DMEM+10% FBS+1% P/S+1% HEPES+Doxycycline (1 μg/mL)
as §1, with “trypsin-EDTA (TE).” for “trypsin-EDTA.”

[1] = Liver microsome half-life assay, human; format: in vitro ADME; details: for metabolic stability in liver microsomes: compared with compounds C001 and C002, statement on Table 12, species not specified; for half-life: human, liver microsomes, 1 mg/mL liver microsomal protein, 37° C., read-out: Liver microsome T½ (min) Human
Method: (§2) The in vitro metabolic stability of the compounds of the present disclosure was determined using warm incubation method of liver microsomes in various species. A proper amount of test compound was added to the liver microsomal reaction system (1 mg/mL liver microsomal protein, 25 U/mL glucose-6-phosphate dehydrogenase, 1 mM NADP, 6 mM D-glucose 6-phosphate, 5 mM MgCl2), and the reaction was started by warm incubation in a water bath at 37° C., then 100 μL of the reaction mixture at each time point was added to a centrifuge tube containing 400 μL of internal standard working solution precooled at 0° C. (containing a solution of 200 ng/mL dexamethasone, diclofenac, tolbutamide, and labetalol in acetonitrile), then the reaction was terminated, centrifuged at 4° C. and 10,000 g for 10 min, and the supernatant was taken into LC-MS for analysis and detection to obtain in vitro metabolic half-lives of the test compounds in liver microsomes of various species.

[2] = Liver microsome half-life assay, rat; format: in vitro ADME; details: liver microsomes, 1 mg/mL liver microsomal protein, 37° C., read-out: Liver microsome T½ (min) Rat
Method: as §2

[3] = Liver microsome half-life assay, mouse; format: in vitro ADME; details: liver microsomes, 1 mg/mL liver microsomal protein, 37° C., read-out: Liver microsome T½ (min) Mouse
Method: as §2

[4] = Pharmacokinetic study in mice in vivo (gavage and tail vein injection); details: mouse, plasma; for AUC(0-t) / Cmax: dose 1 mg/kg; for bioavailability: 1 mg/kg, p.o. vs i.v.
Description: […] Mouse plasma was collected at a specific time point after administration, and the concentration of the compound in plasma was detected by LC-MS/MS (AB SCIEX Qtrap4500). PK parameters of each compound (WinNonlin V5.2, Pharsight) were statistically analyzed and calculated to reflect the pharmacokinetic properties of the compounds of the present disclosure in mice in vivo.

[5] = Liver microsome half-life assay, beagle dog; format: in vitro ADME; details: liver microsomes, 1 mg/mL liver microsomal protein, 37° C., read-out: Liver microsome T½ (min) Beagle dog
Method: as §2

[6] = Liver microsome half-life assay, monkey; format: in vitro ADME; details: liver microsomes, 1 mg/mL liver microsomal protein, 37° C., read-out: Liver microsome T½ (min) Monkey
Method: as §2

[7] = Table 11, read-out: TRPC5 inhibitory activity, IC50

TRPC5 channel, sequence (Q9UL62 whole entry): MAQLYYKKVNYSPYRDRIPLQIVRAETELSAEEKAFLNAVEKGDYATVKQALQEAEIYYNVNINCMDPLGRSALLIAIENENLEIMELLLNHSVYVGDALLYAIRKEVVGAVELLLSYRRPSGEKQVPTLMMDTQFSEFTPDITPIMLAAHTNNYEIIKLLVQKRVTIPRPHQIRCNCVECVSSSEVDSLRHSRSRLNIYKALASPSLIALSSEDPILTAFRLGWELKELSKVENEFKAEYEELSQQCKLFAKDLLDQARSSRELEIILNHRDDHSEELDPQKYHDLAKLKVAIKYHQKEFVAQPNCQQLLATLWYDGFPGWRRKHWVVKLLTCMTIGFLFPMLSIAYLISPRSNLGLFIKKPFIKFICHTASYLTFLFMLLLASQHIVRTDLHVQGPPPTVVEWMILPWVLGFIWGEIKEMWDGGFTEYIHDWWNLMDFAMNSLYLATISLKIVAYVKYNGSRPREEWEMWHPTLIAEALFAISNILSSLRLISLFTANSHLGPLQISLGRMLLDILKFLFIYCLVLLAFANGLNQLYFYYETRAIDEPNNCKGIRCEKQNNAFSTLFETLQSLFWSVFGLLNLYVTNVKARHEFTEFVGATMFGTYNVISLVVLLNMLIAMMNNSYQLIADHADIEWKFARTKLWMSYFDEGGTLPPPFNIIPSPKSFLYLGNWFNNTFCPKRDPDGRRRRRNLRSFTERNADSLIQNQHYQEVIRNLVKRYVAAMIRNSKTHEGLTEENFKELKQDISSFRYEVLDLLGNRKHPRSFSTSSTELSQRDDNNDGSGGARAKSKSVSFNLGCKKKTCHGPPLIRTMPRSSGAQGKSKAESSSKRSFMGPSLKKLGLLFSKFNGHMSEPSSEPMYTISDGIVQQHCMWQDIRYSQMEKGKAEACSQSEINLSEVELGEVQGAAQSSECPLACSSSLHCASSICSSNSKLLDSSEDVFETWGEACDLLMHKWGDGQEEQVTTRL

| Compound | IC50 (TRPC5 channel; [7]) [nM] | half-life [1] [min] | half-life [2] [min] | half-life [3] [min] | AUC(0-t) ([4]; iv) [ng·h/mL] | Cmax ([4]; iv) [ng/mL] | bioavailability ([4]; po) [%] | AUC(0-t) ([4]; po) [ng·h/mL] | Cmax ([4]; po) [ng/mL] | other results |
| --- | --- | --- | --- | --- | --- | --- | --- | --- | --- | --- |
| O=c1[nH]ncc(N2CCn3c(Cc4ccc(F)cc4C(F)F)cnc3C2)c1Cl [Compound L007] | 7.37 | – | – | – | – | – | – | – | – | – |
| O=c1[nH]ncc(N2CCn3c(Cc4ccccc4C(F)(F)F)cnc3C2)c1Cl [Compound L001, 4-chloro-5-(3-(2-(trifluoromethyl)benzyl)-5,6-dihydroimidazo[1,2-a]pyrazin-7(8H)-yl)pyridazin-3(2H)-one] | 10.8 | 173 | 20 | 154 | 225 | 225 | 80.6 | 84.3 | 84.3 | metabolic stability in liver microsomes [1]: significantly improved |
| O=C(c1ccc(F)cc1C(F)(F)F)c1cnc2n1CCN(c1cnn(COP(=O)(O)O)c(=O)c1Cl)C2 [Compound 1, (5-chloro-4-(3-(4-fluoro-2-(trifluoromethyl)benzoyl)-5,6-dihydroimidazo[1,2-a]pyrazin-7(8H)-yl)-6-oxopyridazin-1(6H)-yl)methyl dihydrogen phosphate] | – | – | – | – | – | – | – | – | – | inhibitory activity against TRPC5 channels (TRPC5 channel): no inhibitory activity; IC50 (TRPC5 channel; Table 1, read-out: TRPC5 inhibitory activity, IC50): > 10000 nM |
| O=c1[nH]ncc(N2CCn3c(Cc4ccc(F)cc4Cl)cnc3C2)c1Cl [Compound L009] | 39.4 | – | – | – | – | – | – | – | – | – |
| N#Cc1ccc(C(=O)c2cnc3n2CCN(c2cn[nH]c(=O)c2Cl)C3)c(C(F)(F)F)c1 [Compound L019, 4-(7-(5-chloro-6-oxo-1,6-dihydropyridazin-4-yl)-5,6,7,8-tetrahydroimidazo[1,2-a]pyrazine-3-carbonyl)-3-(trifluoromethyl)benzonitrile] | 24 | – | – | – | – | – | – | – | – | – |
| N#Cc1ccc(Cc2cnc3n2CCN(c2cn[nH]c(=O)c2Cl)C3)c(C(F)(F)F)c1 [Compound L014, 4-((7-(5-chloro-6-oxo-1,6-dihydropyridazin-4-yl)-5,6,7,8-tetrahydroimidazo[1,2-a]pyrazin-3-yl)methyl)-3-(trifluoromethyl)benzonitrile] | 18.2 | 7590 | – | 167 | 663 | 762 | 161 | 1070 | 301 | – |

Second part, led by results:

| IC50 (TRPC5 channel; [7]) [nM] | half-life [1] [min] | half-life [2] [min] | half-life [3] [min] | AUC(0-t) ([4]; iv) [ng·h/mL] | Cmax ([4]; iv) [ng/mL] | bioavailability ([4]; po) [%] | AUC(0-t) ([4]; po) [ng·h/mL] | Cmax ([4]; po) [ng/mL] | Compound | other results |
| --- | --- | --- | --- | --- | --- | --- | --- | --- | --- | --- |
| 14.6 | 148 | – | 131 | – | – | – | – | – | O=c1[nH]ncc(N2CCn3c(Cc4cc(F)ccc4C(F)(F)F)cnc3C2)c1Cl [Compound L013, 4-chloro-5-(3-(5-fluoro-2-(trifluoromethyl)benzyl)-5,6-dihydroimidazo[1,2-a]pyrazin-7(8H)-yl)pyridazin-3(2H)-one] | – |
| 6.52 | 262 | – | 188 | 1450 | 833 | 43.2 | 625 | 248 | O=c1[nH]ncc(N2CCn3c(Cc4ccc(F)cc4C(F)(F)F)cnc3C2)c1Cl [Compound L002, 4-chloro-5-(3-(4-fluoro-2-(trifluoromethyl)benzyl)-5,6-dihydroimidazo[1,2-a]pyrazin-7(8H)-yl)pyridazin-3(2H)-one] | metabolic stability in liver microsomes [1]: significantly improved |
| – | 90 | 34 | 115 | – | – | – | – | – | O=c1[nH]ncc(N2CCc3c(ncn3Cc3ccc(F)cc3C(F)(F)F)C2)c1Cl [Compound C002, reference compound] | half-life [5]: 102 min; half-life [6]: 15 min |
| – | 54 | 5 | 60 | – | – | – | – | – | O=c1[nH]ncc(N2CCc3c(ncn3Cc3ccccc3C(F)(F)F)C2)c1Cl [Compound C001, reference compound] | half-life [5]: 15 min; half-life [6]: 38 min |
